In patent US20240279233A1, “MACROCYCLIC TAK1 INHIBITORS” (Aqilion AB, priority 2021, published 2024):
≈ marks a conversion by molar mass, not a printed value. Like-named read-outs stand apart in the source and are kept apart here.

Legend:
[1] = amide bond, 14-membered ring
[2] = amide bond, 14-membered ring; remark: listed apart in the source
[3] = molecular target: human recombinant TAK1-TAB1 Kinase (TAK1 (1-303) and TAB1 (437-end)) (Homo sapiens (Human), UniProt O43318); test: TAK1 biochemical ADP-Glo kinase assay; details: MBP substrate
Summary of the method: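 Inhibition of human recombinant TAK1-TAB1 kinase was measured with a Promega ADP-Glo luminescence assay in 384-well plates. Compounds in 5% DMSO were pre-incubated 10 min with 2 μl TAK1-TAB1 (7.5 ng/μl) in buffer of Tris pH 7.5, MgCl2, DTT and BSA. MBP substrate and ATP were then added for 1 hour at room temperature. ADP-Glo reagent and kinase detection substrate followed, luminescence was read on an Envision, and IC50 came from non-linear regression.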

[4] = Solubility assay in phosphate buffer; details: phosphate buffer 100 mM, pH 7.4, room temperature, 20-24 h, LC-UV
Procedure: The aqueous solubility of selected example compounds was determined as follows; 6 μL of DMSO stock solution of the selected example was added to 594 μL phosphate buffer (100 mM, pH 7.4). The resulting mixture was equilibrated over night (20-24 h, Alligator Shaker, room temperature). The mixture was then filtered (Millex LH 0.45 μm) and the concentration/solubility was determined by LC-UV quantification.

[5] = 10 μM ATP, read-out: TAK1 Mean IC50 (nM) @ 10 μM ATP
[6] = phosphate buffer, pH 7.4, aqueous buffer, kinetic from dmso stock, Solubility (μM)

Chain of human recombinant TAK1-TAB1 Kinase (TAK1 (1-303) and TAB1 (437-end)) (O43318 other isoform, or with tags, fused parts or gaps): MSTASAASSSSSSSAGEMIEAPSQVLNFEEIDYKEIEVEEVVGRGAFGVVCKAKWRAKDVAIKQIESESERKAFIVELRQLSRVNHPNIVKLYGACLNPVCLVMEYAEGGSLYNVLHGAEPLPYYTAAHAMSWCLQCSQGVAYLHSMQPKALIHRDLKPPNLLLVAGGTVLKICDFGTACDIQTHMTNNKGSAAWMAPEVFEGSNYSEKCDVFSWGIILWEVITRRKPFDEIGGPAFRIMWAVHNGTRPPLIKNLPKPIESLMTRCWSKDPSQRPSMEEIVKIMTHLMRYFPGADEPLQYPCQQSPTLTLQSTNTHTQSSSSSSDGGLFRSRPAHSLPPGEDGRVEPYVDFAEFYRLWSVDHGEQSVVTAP

C#Cc1cccc2nc3n(c12)[C@@H](C)CCCCNC(=O)c1cccc(c1)C(=O)N3
ring closure, isolated yield ([1]; from C#Cc1cccc2nc(NC(=O)c3cccc(C(=O)O)c3)n([C@@H](C)CCCCN)c12, TCFH/NMI, MeCN/DMF, 0.82 mM, 0.0 °C, 4.0 h): 73%

CN1CCN(Cc2ccc3c(c2)nc2n3CCCCCNC(=O)c3cccc(n3)C(=O)N2)CC1 [Example 102, (E)-1^5-((4-methylpiperazin-1-yl)methyl)-1^2,1^3-dihydro-1^1H-2,6-diaza-1(2,1)-benzo[d]imidazola-4(2,6)-pyridinacycloundecaphane-3,5-dione]
ring closure, yield after HPLC ([2]; from CN1CCN(Cc2ccc3c(c2)nc(NC(=O)c2cccc(C(=O)O)n2)n3CCCCCN)CC1, T3P/DIEA, DMF, 50.0 mM, 25.0 °C, 1.5 h): 30%
IC50 [3, 5]: 9 nM
solubility [4, 6]: 88 µM (≈ 40.6 µg/mL)

CN1CCN(Cc2cc(C(=O)N(C)C)c3c(c2)nc2n3CCCCCNC(=O)c3cccc(c3)C(=O)N2)CC1 [Example 27, (E)-N,N-dimethyl-1^5-((4-methylpiperazin-1-yl)methyl)-3,5-dioxo-1^2,1^3-dihydro-1^1H-2,6-diaza-1(2,1)-benzo[d]imidazola-4(1,3)-benzenacycloundecaphane-1^7-carboxamide]
ring closure, yield after HPLC ([2]; from CN1CCN(Cc2cc(C(=O)N(C)C)c3c(c2)nc(NC(=O)c2cccc(C(=O)O)c2)n3CCCCCN)CC1, HATU/DIEA, THF, then DMF, 0.46 mM, 40.0 °C, 18.0 h): 10%
IC50 [3, 5]: 8 nM
solubility [4, 6]: 61.3 µM (≈ 32.6 µg/mL)

CC1CCCCNC(=O)c2cccc(c2)C(=O)Nc2nc3ccccc3n21 (stereo not shown) [Example 6, 11-methyl-1^1H-2,6-diaza-1(2,1)-benzo[d]imidazola-4(1,3)-benzenacycloundecaphane-3,5-dione]
ring closure, yield after HPLC ([2]; from CC(CCCCN)n1c(NC(=O)c2cccc(C(=O)O)c2)nc2ccccc21, HATU/TEA, MeCN, 4.3 mM, 50.0 °C, 16.0 h, 2 steps): 39%
IC50 [3, 5]: 5 nM
solubility [4, 6]: 2.5 µM (≈ 0.906 µg/mL)

O=C1NCCOCCn2c(nc3ccccc32)NC(=O)c2cccc1c2 [Example 5, 1^1H-9-oxa-2,6-diaza-1(2,1)-benzo[d]imidazola-4(1,3)-benzenacycloundecaphane-3,5-dione]
ring closure, yield after HPLC ([2]; from NCCOCCn1c(NC(=O)c2cccc(C(=O)O)c2)nc2ccccc21, HATU/TEA, MeCN, 14.0 mM, 50.0 °C, 16.0 h, 2 steps): 16%
IC50 [3, 5]: 11 nM
IC50 ([3]; 1 mM ATP, read-out: TAK1 Mean IC50 (nM) @ 1 mM ATP): 247 nM
solubility [4]: 15.2 µM (≈ 5.33 µg/mL)

C[C@@H]1CCCCNC(=O)c2cccc(c2)C(=O)Nc2nc3cccc(-c4cn(C)nn4)c3n21 [Example 66, (R,E)-11-methyl-1^7-(1-methyl-1H-1,2,3-triazol-4-yl)-1^2,1^3-dihydro-1^1H-2,6-diaza-1(2,1)-benzo[d]imidazola-4(1,3)-benzenacycloundecaphane-3,5-dione]
ring closure, yield after HPLC ([2]; from C[C@H](CCCCN)n1c(NC(=O)c2cccc(C(=O)O)c2)nc2cccc(-c3cn(C)nn3)c21, HATU/DIEA, THF, 0.48 mM, 25.0 °C, 78.0 h): 5%
IC50 [3, 5]: 3 nM
solubility [4, 6]: 5.2 µM (≈ 2.31 µg/mL)

COc1ncccc1-c1cccc2nc3n(c12)CCCCCNC(=O)c1cccc(c1)C(=O)N3 [Example 28, (E)-1^7-(2-methoxypyridin-3-yl)-1^2,1^3-dihydro-1^1H-2,6-diaza-1(2,1)-benzo[d]imidazola-4(1,3)-benzenacycloundecaphane-3,5-dione]
ring closure, yield after HPLC ([2]; from COc1ncccc1-c1cccc2nc(NC(=O)c3cccc(C(=O)O)c3)n(CCCCCN)c12, HATU/DIEA, DMF, 0.49 mM, 16.0 h): 19%
IC50 [3, 5]: 366 nM
solubility [4, 6]: 1.1 µM (≈ 0.501 µg/mL)

C[C@H]1CCCCNC(=O)c2cccc(c2)C(=O)Nc2nc3ccnc(Cl)c3n21
ring closure, isolated yield ([1]; from C[C@@H](CCCCN)n1c(NC(=O)c2cccc(C(=O)O)c2)nc2ccnc(Cl)c21, TCFH/NMI, DMF/MeCN, 0.6 mM, 25.0 °C, 3.0 h): 20%

C[C@@H]1CCCCNC(=O)c2cccc(c2)C(=O)Nc2nc3cccc(S(=O)(=O)N(C)C)c3n21 [Example 46, (R,E)-N,N,11-trimethyl-3,5-dioxo-1^2,1^3-dihydro-1^1H-2,6-diaza-1(2,1)-benzo[d]imidazola-4(1,3)-benzenacycloundecaphane-1^7-sulfonamide]
ring closure, yield after HPLC ([2]; from C[C@H](CCCCN)n1c(NC(=O)c2cccc(C(=O)O)c2)nc2cccc(S(=O)(=O)N(C)C)c21, HATU/DIEA, THF, 0.5 mM, 50.0 °C, 16.0 h): 24%
IC50 [3, 5]: 2 nM
solubility [4, 6]: 10 µM (≈ 4.7 µg/mL)

C[C@@H]1CCCCNC(=O)c2cccc(c2)C(=O)Nc2nc3cccc(N4CCN(C)C4=O)c3n21 [Example 65, (R,E)-11-methyl-1^7-(3-methyl-2-oxoimidazolidin-1-yl)-1^2,1^3-dihydro-1^1H-2,6-diaza-1(2,1)-benzo[d]imidazola-4(1,3)-benzenacycloundecaphane-3,5-dione]
ring closure, isolated yield ([1]; from C[C@H](CCCCN)n1c(NC(=O)c2cccc(C(=O)O)c2)nc2cccc(N3CCN(C)C3=O)c21, HATU/DIEA, THF, 0.5 mM, 25.0 °C, 96.0 h): 15%
IC50 [3, 5]: 4 nM
solubility [4, 6]: 95 µM (≈ 43.8 µg/mL)

CC1CCCCNC(=O)c2cccc(c2)C(=O)Nc2nc3cccc(N4CCCC4=O)c3n21 (stereo not shown)
ring closure, isolated yield ([1]; from CC(CCCCN)n1c(NC(=O)c2cccc(C(=O)O)c2)nc2cccc(N3CCCC3=O)c21, TCFH/NMI, DMF/MeCN, 4.2 mM, 25.0 °C, 2.5 h): 7.7%

CCOC(=O)c1cnc(Cl)c2nc3n(c12)[C@@H](C)CCCCNC(=O)c1cccc(c1)C(=O)N3
ring closure, isolated yield ([1]; from CCOC(=O)c1cnc(Cl)c2nc(NC(=O)c3cccc(C(=O)O)c3)n([C@@H](C)CCCCN)c12, TCFH/NMI, MeCN/DMF, 1.29 mM, 0.0 °C, 4.0 h): 49%

Cc1nnc(-c2cccc3nc4n(c23)C(C)CCCCNC(=O)c2cccc(c2)C(=O)N4)o1 (stereo not shown)
ring closure, isolated yield ([1]; from Cc1nnc(-c2cccc3nc(NC(=O)c4cccc(C(=O)O)c4)n(C(C)CCCCN)c23)o1, HATU/DIEA, THF, 0.5 mM, 25.0 °C, 16.0 h, 2 steps): 13%

Cc1ccc2c(c1)nc1n2CCCCCNC(=O)c2cccc(c2)C(=O)N1 [Example 4, 1^5-methyl-1^1H-2,6-diaza-1(2,1)-benzo[d]imidazola-4(1,3)-benzenacycloundecaphane-3,5-dione]
ring closure, yield after HPLC ([2]; from Cc1ccc2c(c1)nc(NC(=O)c1cccc(C(=O)O)c1)n2CCCCCN, HATU/TEA, MeCN, 50.0 °C, 16.0 h, 2 steps): 39%
IC50 [3, 5]: 7 nM
solubility [4, 6]: 0.2 µM (≈ 0.0725 µg/mL)

O=C1NCCCCCn2c(nc3cc(F)ccc32)NC(=O)c2cccc1c2 [Example 99, (E)-1^5-fluoro-1^2,1^3-dihydro-1^1H-2,6-diaza-1(2,1)-benzo[d]imidazola-4(1,3)-benzenacycloundecaphane-3,5-dione]
ring closure, yield after HPLC ([2]; from NCCCCCn1c(NC(=O)c2cccc(C(=O)O)c2)nc2cc(F)ccc21, HATU/DIEA, THF, 0.5 mM, 50.0 °C, 16.0 h): 16%
IC50 [3, 5]: 4 nM
solubility [4, 6]: 0.2 µM (≈ 0.0733 µg/mL)

COC(=O)c1cc(Br)cc2nc3n(c12)[C@@H](C)CCCCNC(=O)c1cccc(c1)C(=O)N3
ring closure, isolated yield ([1]; from COC(=O)c1cc(Br)cc2nc(NC(=O)c3cccc(C(=O)O)c3)n([C@@H](C)CCCCN)c12, TCFH/NMI, DMF/MeCN, 1.4 mM, 0.0 °C, 16.0 h): 30%
